Test results: patent US7534763B2 (Bristol-Myers Squibb Company, priority 2004, dated 2009)
Where two headings read alike, the source gives them in different places. Blank lines part the entries; values can stand above or below the compound they belong to. *1 amine or outer side, *2 acyl side, *3 side chain or, on linkers, in order; H or OH if unused. Where a SMILES comes first, the peptide text is derived from it. [ ]: non-standard residue; d: D form. The star is where a group is joined. ξ: configuration not given here. Ala(6-(2-MePh)pyridin-3-yl) = Cc1ccccc1-c1ccc(C[C@H](N)C(=O)O)cn1; Phe(4-(2-Et-4-HO-Ph)) = CCc1cc(O)ccc1-c1ccc(C[C@H](N)C(=O)O)cc1; Bip(2'-Et-4'-OMe) = CCc1cc(OC)ccc1-c1ccc(C[C@H](N)C(=O)O)cc1; Lactoyl(3-(imidazol-4-yl)) = O=C([C@@H](O)Cc1c[nH]cn1)*; X2 = Cc1ccccc1-c1ncc(C[C@H](N[*:1])C(=O)[*:2])cn1; αMePhe(2,6-F2) = C[C@](N)(Cc1c(F)cccc1F)C(=O)O; αMePhe(2-F) = C[C@](N)(Cc1ccccc1F)C(=O)O; ξαMePhe(2-F) = CC(N)(Cc1ccccc1F)C(=O)O; αMeP = C[C@@]1(C(=O)O)CCCN1; dNMeA = CN[C@H](C)C(=O)O; ξαMeP = CC1(C(=O)O)CCCN1; Aib = CC(C)(N)C(=O)O; Moc = COC(=O)*

Tests used:
Format in all cases: in vivo
[1] = Dog pharmacokinetic study (iv and sc, solution vehicles); details: beagle, dog, plasma; for half-life: read-out: t½ (converted)
Procedure: The pharmacokinetic parameters of the compound of SEQ ID NO:9 were determined in male beagle dogs (n=4, 14±1 kg). Following an overnight fast, each animal received the compound of SEQ ID NO:9 either as an intravenous bolus via femoral vein (67 μg/kg) or by subcutaneous injection given at near the shoulder blades (67 μg/kg). Each animal received both intravenous and subcutaneous doses with a one-week washout between doses following a crossover design. […] Serial blood samples were collected in EDTA-containing microcentrifuge tubes at predose, 0.083, 0.25, 0.5, 0.75, 1, 2, 4, 6, 8, 24, and 30 hours post-dose after intravenous administration; at predose, 0.25, 0.5, 0.75, 1, 2, 4, 6, 8, 24, and 30 hours post-dose after subcutaneous administration. Approximately 0.3 mL of blood was collected at each time point. Blood samples were immediately centrifuged at 4° C. The obtained plasma was frozen with dry ice and stored at −20° C. Plasma drug levels were determined using the LC-MS/MS assay described above.
Plasma samples from in vivo dog study were prepared for analysis by precipitating plasma proteins with two volumes of acetonitrile containing an internal standard. The samples were vortex mixed and removed the precipitated proteins by centrifugation. The resulting supernatants were transferred to a 96-well plate and 10 μL were injected for analysis. Samples were prepared with the Packard Multiprobe II and Quadra 96 Liquid Handling System.
The HPLC system consisted of two Shimadzu LC10AD pumps (Columbia, Md.), a CTC PAL autosampler (Leap Technologies, Switzerland). The column used was a YMC Hydrosphere C18 (2.0×50 mm, 3 μm) (YMC, Inc., Milford, Ma.). The column temperature was maintained at 50° C. and the flow rate was 0.3 mL/minute. The mobile phase A consisted of 10 mM ammonium formate and 0.1% formic acid in water and mobile phase B consisted of 0.1% formic acid in acetonitrile. The initial mobile phase composition was 5% B, and remained at 5% B for one minute to equilibrate the column. The composition was ramped to 95% B over two minutes and held there for one additional minute. The mobile phase was then returned to initial conditions in one minute. Total analysis time was five minutes. A switching valve was used. The eluents between 0-1 minute were diverted to the waste.
The HPLC was interfaced to a Sciex API 4000 mass spectrometer, (Applied Biosystems, Foster City, Calif.) and was equipped with a TurboIonspray ionization source. Ultra high purity nitrogen was used as the nebulizing and turbo gas. The temperature of turbo gas was set at 300° C. and the interface heater was set at 60° C. Data acquisition utilized selected reaction monitoring (SRM). Ions representing the (M+2H)^2+ species for the compound of SEQ ID NO:9, and (M+2H)^2+ for BMS-501143 (IS) were selected in Q1 and were collisionally dissociated with high purity nitrogen at a pressure of 3.5×10^−3torr to form specific product ions which were subsequently monitored by Q3.
The standard curve concentrations, ranging from 1 to 1000 nM and from 4 to 5000 nM, were used for the in vivo samples obtained from low and high doses, respectively. The curves were fitted with a quadratic regression weighted by reciprocal […]. Standards were analyzed in duplicate. Quality control (QC) samples, prepared in blank matrix at the same concentrations as the standard were also analyzed in each analytical set. For the compound of SEQ ID NO:9, the calculated concentrations of more than 80% of the QCs were within 20% of nominal concentration, indicating acceptable assay performance.
The compound of SEQ ID NO:9 plasma concentration vs. time data were analyzed by noncompartmental methods using the […]™ software program. The Cmax and Tmax values were recorded directly from experimental observations. The AUC0-n and AUCtot values were calculated using a combination of linear and log trapezoidal summations. […]

[2] = test system: ob/ob mice; assay: intraperitoneal glucose tolerance test (ipGTT) after sc injection in ob/ob mice (plasma glucose, insulin); details: ob/ob mice; for effect on postprandial plasma glucose (in words): sc, ipGTT 0-180 or 210 min
Procedure: (§1) Peptides were dissolved in an appropriate vehicle at a concentration in nmol/ml equivalent to the dose that was to be administered in nmol/kg so that each mouse would receive the same volume/weight of dosing solution. Male C57BL/6J-ob/ob mice (10 weeks old) were randomized into groups of 6 mice per group based on fed plasma glucose and body weight. After an overnight fast, mice were weighed and placed in the experimental lab. After 30 min in the environment, the mice were bled via tail tip at −30 min and immediately injected subcutaneously (sc) with vehicle or the peptide dissolved in vehicle (0.1 ml solution/100 g body weight). At time 0 the mice were bled and then injected intraperitoneally with 50% glucose (2 g/kg) to initiate the intraperitoneal glucose tolerance test (ipGTT). The mice were bled 30, 60, 120 and 180 min after the glucose injection. Blood samples were drawn into potassium EDTA, placed on ice during the study and subsequently centrifuged for 10 min at 3000 rpm at 4° C. Plasma samples were diluted 11-fold for glucose analysis in the Cobas System. Another 5 μl plasma sample was diluted 5-fold with 20 μl of Sample Diluent (Insulin ELISA assay kit, Crystal Chem Inc.) and stored at −20° C. for subsequent analysis using the Ultra Sensitive Mouse Insulin ELISA kit (Crystal Chem Inc.).

[3] = Exposure during ipGTT in ob/ob mice; details: sc
Procedure: as §1

[4] = male, sc, 67 ug/kg, Table II, vehicle propylene glycol/pH 7.4 phosphate buffer (1:1), read-out: Exposure in dogs (sc@67 μg/kg)
[5] = 67 ug/kg, intravenous 67 μg/kg, Tables 6A-6C (6A vehicle 0.2 M Tris, pH 8.0)
[6] = sc, 67 ug/kg, subcutaneous 67 μg/kg, Tables 6A-6C (vehicle 0.2 M Tris, pH 8.0)

SMILES: CCc1cc(OC)ccc1-c1ccc(C[C@H](NC(=O)[C@H](CC(=O)O)NC(=O)[C@H](CO)NC(=O)[C@@H](NC(=O)[C@](C)(Cc2c(F)cccc2F)NC(=O)[C@@H](NC(=O)CNC(=O)[C@H](CCC(=O)O)NC(=O)[C@]2(C)CCCN2C(=O)[C@H](Cc2c[nH]cn2)NC(=O)OC)[C@@H](C)O)[C@@H](C)O)C(=O)N[C@@H](Cc2ccc(-c3ccccc3C)nc2)C(N)=O)cc1 [SEQ ID NO: 140] (Moc-H[αMeP]EGT[αMePhe(2,6-F2)]TSD[Bip(2'-Et-4'-OMe)][Ala(6-(2-MePh)pyridin-3-yl)]-NH2)
AUC [1, 4]: 0.283 µM·h

SMILES: CCc1cc(OC)ccc1-c1ccc(C[C@H](NC(=O)[C@H](CC(=O)O)NC(=O)[C@H](CO)NC(=O)[C@@H](NC(=O)C(C)(Cc2ccccc2F)NC(=O)[C@@H](NC(=O)CNC(=O)[C@H](CCC(=O)O)NC(=O)C2(C)CCCN2C(=O)[C@H](Cc2c[nH]cn2)NC(=O)OC)[C@@H](C)O)[C@@H](C)O)C(=O)N[C@@H](Cc2ccc(-c3ccccc3C)nc2)C(N)=O)cc1 (stereo partly shown) [SEQ ID NO: 139] (Moc-H[ξαMeP]EGT[ξαMePhe(2-F)]TSD[Bip(2'-Et-4'-OMe)][Ala(6-(2-MePh)pyridin-3-yl)]-NH2)
AUC [1, 4]: 1.6 µM·h
% AUC Reduction in Plasma Glucose in an IP Glucose Tolerance Test after SC Injection of Compound ([2]; 10 nmol/kg, vs vehicle group): −63% (p < 0.01)

SMILES: CCc1cc(OC)ccc1-c1ccc(C[C@H](NC(=O)[C@H](CC(=O)O)NC(=O)[C@H](Cc2c[nH]cn2)NC(=O)[C@@H](NC(=O)[C@](C)(Cc2ccccc2F)NC(=O)[C@@H](NC(=O)CNC(=O)[C@H](CCC(=O)O)NC(=O)[C@]2(C)CCCN2C(=O)[C@@H](N)Cc2c[nH]cn2)[C@@H](C)O)[C@@H](C)O)C(=O)N[C@@H](Cc2ccc(-c3ccccc3C)nc2)C(N)=O)cc1 [SEQ ID NO: 120] (H-H[αMeP]EGT[αMePhe(2-F)]THD[Bip(2'-Et-4'-OMe)][Ala(6-(2-MePh)pyridin-3-yl)]-NH2)
AUC [1, 4]: 1.12 µM·h

SMILES: CCc1cc(OC)ccc1-c1ccc(C[C@H](NC(=O)[C@H](CC(=O)O)NC(=O)[C@H](CO)NC(=O)[C@@H](NC(=O)[C@](C)(Cc2ccccc2F)NC(=O)[C@@H](NC(=O)CNC(=O)[C@H](CCC(=O)O)NC(=O)C(C)(C)NC(=O)[C@@H](N)Cc2c[nH]cn2)[C@@H](C)O)[C@@H](C)O)C(=O)N[C@@H](Cc2cnc(-c3ccccc3C)nc2)C(N)=O)cc1 [SEQ ID NO: 130] (H-H[Aib]EGT[αMePhe(2-F)]TSD[Bip(2'-Et-4'-OMe)][X2]-NH2)
AUC [1, 4]: 0.541 µM·h

SMILES: CCc1cc(OC)ccc1-c1ccc(C[C@H](NC(=O)[C@H](CC(=O)O)NC(=O)[C@H](CO)NC(=O)[C@@H](NC(=O)[C@](C)(Cc2ccccc2F)NC(=O)[C@@H](NC(=O)CNC(=O)[C@H](CCC(=O)O)NC(=O)[C@@H](C)NC(=O)[C@@H](N)Cc2c[nH]cn2)[C@@H](C)O)[C@@H](C)O)C(=O)N[C@@H](Cc2ccc(-c3ccccc3C)nc2)C(N)=O)cc1 [SEQ ID NO: 149] (H-H[dA]EGT[αMePhe(2-F)]TSD[Bip(2'-Et-4'-OMe)][Ala(6-(2-MePh)pyridin-3-yl)]-NH2)
AUC [1, 4]: 0.94 µM·h

SMILES: CCc1cc(OC)ccc1-c1ccc(C[C@H](NC(=O)[C@H](CC(=O)O)NC(=O)[C@H](CO)NC(=O)[C@@H](NC(=O)[C@](C)(Cc2ccccc2F)NC(=O)[C@@H](NC(=O)CNC(=O)[C@H](CCC(=O)O)NC(=O)[C@@H](C)N(C)C(=O)[C@@H](N)Cc2c[nH]cn2)[C@@H](C)O)[C@@H](C)O)C(=O)N[C@@H](Cc2ccc(-c3ccccc3C)nc2)C(N)=O)cc1 [SEQ ID NO: 119] (H-H[dNMeA]EGT[αMePhe(2-F)]TSD[Bip(2'-Et-4'-OMe)][Ala(6-(2-MePh)pyridin-3-yl)]-NH2)
AUC [1, 4]: 1.26 µM·h

More lines, main results first:

MRT [1, 5]: 4.9 ± 0.7 h
AUC ([1]; 67 ug/kg, intravenous 67 μg/kg, Tables 6A-6C (6A vehicle 0.2 M Tris, pH 8.0), read-out: AUCtot): 1.39 ± 0.227 µM·h
clearance ([1]; 67 ug/kg, intravenous 67 μg/kg, Tables 6A-6C (6A vehicle 0.2 M Tris, pH 8.0), read-out: CLp): 0.51 ± 0.08 mL/min/kg
half-life [1, 5]: 4.4 ± 0.4 h
Cmax [1, 6]: 279 ± 82 nM
MRT [1, 6]: 5.2 ± 1.5 h
Tmax [1, 6]: 1.4 ± 0.7 h
AUC ([1]; sc, 67 ug/kg, subcutaneous 67 μg/kg, Tables 6A-6C (vehicle 0.2 M Tris, pH 8.0), read-out: AUCtot): 1.47 ± 0.563 µM·h
half-life [1, 6]: 3.9 ± 1.3 h
bioavailability ([1]; subcutaneous vs intravenous 67 μg/kg, Tables 6A-6C (vehicle 0.2 M Tris, pH 8.0)): 110 ± 49%
Exposure/dose during ipGTT in ob/ob mice [3]: 11 nM * h/nmol/kg
SMILES: CCc1cc(O)ccc1-c1ccc(C[C@H](NC(=O)[C@H](CC(=O)O)NC(=O)[C@H](CO)NC(=O)[C@@H](NC(=O)C(C)(Cc2ccccc2F)NC(=O)[C@@H](NC(=O)CNC(=O)[C@H](CCC(=O)O)NC(=O)C2(C)CCCN2C(=O)[C@H](Cc2c[nH]cn2)NC(=O)OC)[C@@H](C)O)[C@@H](C)O)C(=O)N[C@@H](Cc2ccc(-c3ccccc3C)nc2)C(N)=O)cc1 (stereo partly shown) [SEQ ID NO: 158] (Moc-H[ξαMeP]EGT[ξαMePhe(2-F)]TSD[Phe(4-(2-Et-4-HO-Ph))][Ala(6-(2-MePh)pyridin-3-yl)]-NH2)
effect on postprandial plasma glucose (in words) [2]: statistically significant decrease

Exposure/dose during ipGTT in ob/ob mice [3]: 16 nM * h/nmol/kg
SMILES: CCc1cc(OC)ccc1-c1ccc(C[C@H](NC(=O)[C@H](CC(=O)O)NC(=O)[C@H](Cc2c[nH]cn2)NC(=O)[C@@H](NC(=O)C(C)(Cc2ccccc2F)NC(=O)[C@@H](NC(=O)CNC(=O)[C@H](CCC(=O)O)NC(=O)C2(C)CCCN2C(=O)[C@@H](O)Cc2c[nH]cn2)[C@@H](C)O)[C@@H](C)O)C(=O)N[C@@H](Cc2ccc(-c3ccccc3C)nc2)C(N)=O)cc1 (stereo partly shown) [SEQ ID NO: 151] ({Lactoyl(3-(imidazol-4-yl))}-[ξαMeP]EGT[ξαMePhe(2-F)]THD[Bip(2'-Et-4'-OMe)][Ala(6-(2-MePh)pyridin-3-yl)]-NH2)
effect on postprandial plasma glucose (in words) [2]: statistically significant decrease

AUC [1, 4]: 0.979 µM·h
SMILES: CCc1cc(OC)ccc1-c1ccc(C[C@H](NC(=O)[C@H](CC(=O)O)NC(=O)[C@H](CO)NC(=O)[C@@H](NC(=O)[C@](C)(Cc2ccccc2F)NC(=O)[C@@H](NC(=O)CNC(=O)[C@H](Cc2c[nH]cn2)NC(=O)C(C)(C)NC(=O)[C@@H](N)Cc2c[nH]cn2)[C@@H](C)O)[C@@H](C)O)C(=O)N[C@@H](Cc2ccc(-c3ccccc3C)nc2)C(N)=O)cc1 [SEQ ID NO: 150] (H-H[Aib]HGT[αMePhe(2-F)]TSD[Bip(2'-Et-4'-OMe)][Ala(6-(2-MePh)pyridin-3-yl)]-NH2)
